Assay results taken from PubChem BioAssay AID977614 (Broad Institute, 2014).
The source made the active and inactive calls.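 Rule for the calls: active = parasite count per well reduced by over 3 SD from the mean, with host cell number above 80% of untreated; inactive = the rest.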

Tested on: L. donovani amastigotes in THP-1 macrophages, DAPI imaging, 72 h
Experiment: antileishmanial activity in infected macrophages – imaging, THP-1 host macrophages, single concentration (AID 977614);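 note: signal is the parasite per host cell ratio from DAPI stained kinetoplasts and nuclei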

SMILES	AC50
CN(C[C@@H]1[C@@H](c2ccccc2)[C@@H](CO)N1Cc1ccccn1)S(C)(=O)=O	> 10 µM (inactive)
C[C@@H]1CN([C@@H](C)CO)C(=O)CCCn2cc(nn2)CO[C@H]1CN(C)C(=O)Oc1ccc2ccccc2c1	> 10 µM (inactive)
Cc1noc(C)c1S(=O)(=O)N(C)C[C@H]1OCc2cnnn2CCCC(=O)N([C@@H](C)CO)C[C@H]1C	> 10 µM (inactive)
O=C(Cc1ccccc1)N1C[C@H]2[C@@H](c3ccccc31)[C@@H](CO)N2S(=O)(=O)c1ccccc1	> 10 µM (inactive)
C[C@H]1CN([C@@H](C)CO)C(=O)CCCn2nncc2CO[C@H]1CN(C)Cc1ccc2c(c1)OCCN2C	> 10 µM (inactive)
COCC(=O)N1[C@@H](CO)[C@@H]2c3ccccc3N(C)C[C@@H]21	> 10 µM (inactive)
C/C=C/c1ccc([C@@H]2[C@H](CO)N(C(C)=O)[C@H]2CN(C(C)=O)C2CCCC2)cc1	> 10 µM (inactive)
CCN(C[C@@H]1N[C@@H](CO)[C@@H]1c1ccccc1)C(=O)c1ccncc1	> 10 µM (inactive)
Cc1noc(C)c1S(=O)(=O)N(C)C[C@H]1OCc2cn(nn2)CCCC(=O)N([C@H](C)CO)C[C@H]1C	> 10 µM (inactive)
C[C@@H]1CN([C@@H](C)CO)C(=O)CCCn2cc(nn2)CO[C@H]1CN(C)S(=O)(=O)c1cccc(C#N)c1	> 10 µM (inactive)
OC[C@@H]1[C@H]2c3ccccc3NC[C@H]2N1Cc1cccnc1	> 10 µM (inactive)
O=C(c1ccncc1)N1C[C@H]2[C@@H](c3ccccc31)[C@H](CO)N2Cc1ccccc1F	> 10 µM (inactive)
C[C@@H]1CN([C@H](C)CO)C(=O)CCCn2nncc2CO[C@@H]1CN(C)S(=O)(=O)c1ccccc1C#N	> 10 µM (inactive)
CC(=O)N1[C@@H](CO)[C@H](c2ccccc2)[C@@H]1CN(C)S(=O)(=O)c1ccccc1	> 10 µM (inactive)
CCC(=O)N1[C@H](CO)[C@@H](c2ccccc2)[C@H]1CN(C)C(=O)CN1CCOCC1	> 10 µM (inactive)
CC(=O)N1[C@H](CO)[C@@H]2c3ccccc3N(S(=O)(=O)c3ccccc3C)C[C@@H]21	> 10 µM (inactive)
CCN(C[C@H]1N[C@@H](CO)[C@@H]1c1ccccc1)C(=O)c1ccncc1	> 10 µM (inactive)
C[C@@H]1CN([C@@H](C)CO)C(=O)CCCn2cc(nn2)CO[C@H]1CN(C)C(=O)c1ccc(N2CCN(C)CC2)cc1	> 10 µM (inactive)
C[C@H](CO)N1C[C@H](C)[C@@H](CN(C)C(=O)c2ccc3ccn(C)c3c2)OCc2cnnn2CCCC1=O	> 10 µM (inactive)
CNC[C@@H]1OCc2cnnn2CCCC(=O)N([C@@H](C)CO)C[C@H]1C	> 10 µM (inactive)
CCCNC[C@H]1[C@@H](c2ccc(-c3cccc(C#N)c3)cc2)[C@@H](CO)N1C(C)=O	> 10 µM (inactive)
COc1ccccc1S(=O)(=O)N(C)C[C@@H]1OCc2cn(nn2)CCCC(=O)N([C@@H](C)CO)C[C@H]1C	> 10 µM (inactive)
CCN(C[C@H]1[C@@H](c2ccccc2)[C@@H](CO)N1C(=O)COC)S(C)(=O)=O	> 10 µM (inactive)
O=C(Nc1cccc(Cl)c1)N1C[C@H]2[C@@H](c3ccccc31)[C@@H](CO)N2Cc1cccnc1	> 10 µM (inactive)
COc1cccc(C(=O)N2C[C@@H]3[C@H](c4ccccc42)[C@H](CO)N3C(=O)c2cccc(F)c2)c1	> 10 µM (inactive)
O=C(CN1CCOCC1)N(CC1CCC1)C[C@H]1N[C@H](CO)[C@@H]1c1ccccc1	> 10 µM (inactive)

SMILES	AC50
C/C=C/c1ccc([C@@H]2[C@H](CO)N[C@H]2CN(C(=O)c2ccccc2F)C(C)C)cc1	> 10 µM (inactive)
CCC(=O)N1[C@H](CN(CC)C(=O)c2cccc(F)c2)[C@H](c2ccccc2)[C@@H]1CO	> 10 µM (inactive)
CN(C[C@H]1N[C@@H](CO)[C@@H]1c1ccccc1)C(=O)c1ccccn1	> 10 µM (inactive)
CC(C)NC(=O)N1[C@@H](CO)[C@@H]2c3ccccc3N(C)C[C@@H]21	> 10 µM (inactive)
Cc1cccc(S(=O)(=O)N2C[C@H]3[C@@H](c4ccccc42)[C@H](CO)N3C(=O)c2ccccc2)c1	> 10 µM (inactive)
Cc1noc(C)c1NC(=O)N(C)C[C@H]1OCc2cn(nn2)CCCC(=O)N([C@@H](C)CO)C[C@@H]1C	> 10 µM (inactive)
C[C@H]1CN([C@@H](C)CO)C(=O)CCCn2nncc2CO[C@@H]1CN(C)S(=O)(=O)c1ccccc1C#N	> 10 µM (inactive)
COc1ccccc1NC(=O)N1C[C@H]2[C@@H](c3ccccc31)[C@H](CO)N2C(=O)C1CCCC1	> 10 µM (inactive)
CNC[C@H]1OCc2cn(nn2)CCCC(=O)N([C@@H](C)CO)C[C@@H]1C	> 10 µM (inactive)
CC(C)NC[C@@H]1[C@H](c2ccc(C3=CCCCC3)cc2)[C@H](CO)N1S(C)(=O)=O	> 10 µM (inactive)
CCCC(=O)N1C[C@H]2[C@@H](c3ccccc31)[C@H](CO)N2C(=O)Nc1ccc(F)cc1	> 10 µM (inactive)
O=C(CC1CC1)NC[C@H]1N[C@H](CO)[C@@H]1c1ccc(-c2ccc(F)cc2)cc1	> 10 µM (inactive)
O=C(Cc1ccccc1)N1C[C@@H]2[C@H](c3ccccc31)[C@H](CO)N2S(=O)(=O)c1ccccc1	> 10 µM (inactive)
CN(C)CC(=O)N1C[C@H]2[C@@H](c3ccccc31)[C@@H](CO)N2C(=O)c1ccccn1	> 10 µM (inactive)
COCC(=O)N1[C@H](CO)[C@H]2c3ccccc3N(C(=O)c3cccnc3)C[C@H]21	> 10 µM (inactive)
CC(=O)N1[C@H](CO)[C@@H]2c3ccccc3N(C(=O)c3ccc(F)cc3)C[C@@H]21	> 10 µM (inactive)
O=C(c1ccc2c(c1)OCO2)N1C[C@@H]2[C@H](c3ccccc31)[C@H](CO)N2Cc1cccnc1	> 10 µM (inactive)
CC(=O)N1[C@H](CO)[C@H](c2ccccc2)[C@H]1CNC(=O)CN1CCOCC1	> 10 µM (inactive)
COc1ccc(NC(=O)N(C)C[C@H]2OCc3cnnn3CCCC(=O)N([C@@H](C)CO)C[C@H]2C)c(OC)c1	> 10 µM (inactive)
C[C@@H]1CN([C@H](C)CO)C(=O)CCCn2cc(nn2)CO[C@@H]1CN(C)C(=O)CCC(F)(F)F	> 10 µM (inactive)
C[C@H]1CN([C@@H](C)CO)C(=O)CCCn2nncc2CO[C@@H]1CN(C)C(=O)c1ccc2ccn(C)c2c1	> 10 µM (inactive)
C[C@@H]1CN([C@H](C)CO)C(=O)CCCn2cc(nn2)CO[C@H]1CN(C)S(=O)(=O)c1cccc(C#N)c1	> 10 µM (inactive)
COCC(=O)N(C[C@@H]1[C@@H](c2ccccc2)[C@@H](CO)N1C(=O)NC(C)C)C(C)C	> 10 µM (inactive)
COc1ccccc1C(=O)N1C[C@@H]2[C@H](c3ccccc31)[C@@H](CO)N2C(=O)Cc1ccccc1	> 10 µM (inactive)
C[C@H](CO)N1C[C@H](C)[C@H](CN(C)Cc2cccc3c2OCCCO3)OCc2cnnn2CCCC1=O	> 10 µM (inactive)
O=C(Nc1cccc(Cl)c1)N1C[C@@H]2[C@H](c3ccccc31)[C@@H](CO)N2Cc1cccnc1	> 10 µM (inactive)

SMILES	AC50
C[C@H]1CN([C@@H](C)CO)C(=O)CCCn2nncc2CO[C@@H]1CN(C)C(=O)Oc1cccc2ccccc12	> 10 µM (inactive)
O=C(C1CCOCC1)N1C[C@@H]2[C@H](c3ccccc31)[C@H](CO)N2C(=O)Cc1ccccn1	> 10 µM (inactive)
COc1ccc(CN2[C@H](CO)[C@@H]3c4ccccc4NC[C@@H]32)cc1	> 10 µM (inactive)
COCC(=O)N1[C@H](CNC(=O)c2ccccn2)[C@H](c2ccccc2)[C@@H]1CO	> 10 µM (inactive)
COCCN(C[C@H]1[C@H](c2ccccc2)[C@H](CO)N1C(C)=O)C(=O)c1cccnc1	> 10 µM (inactive)
COc1ccc(C(=O)N2C[C@@H]3[C@H](c4ccccc42)[C@@H](CO)N3C(=O)NC(C)C)cc1	> 10 µM (inactive)
CC(=O)N1[C@H](CO)[C@H](c2ccccc2)[C@H]1CN(CC1CCC1)C(=O)CN(C)C	> 10 µM (inactive)
C[C@@H]1CN([C@@H](C)CO)C(=O)CCCn2nncc2CO[C@@H]1CN(C)Cc1ccc2c(c1)OCCN2C	> 10 µM (inactive)
C[C@@H]1CN([C@H](C)CO)C(=O)CCCn2nncc2CO[C@@H]1CN(C)C(=O)Oc1cccc2ccccc12	> 10 µM (inactive)
O=C(NC[C@H]1N[C@H](CO)[C@H]1c1ccccc1)c1ccccc1F	> 10 µM (inactive)
CC(C)NC(=O)N1[C@H](CO)[C@@H]2c3ccccc3N(C)C[C@@H]21	> 10 µM (inactive)
O=C(Nc1ccc(F)cc1)N1[C@@H](CO)[C@@H]2c3ccccc3NC[C@@H]21	> 10 µM (inactive)
COCC(=O)N1[C@H](CO)[C@@H]2c3ccccc3N(C(=O)Nc3ccccc3Cl)C[C@@H]21	> 10 µM (inactive)
O=C(NC[C@H]1[C@@H](c2ccccc2)[C@H](CO)N1C(=O)Cc1ccncc1)C1CCC1	> 10 µM (inactive)
CN1[C@H](CO)[C@@H]2c3ccccc3N(C(=O)Nc3cc(F)ccc3F)C[C@@H]21	> 10 µM (inactive)
C/C=C/c1ccc([C@H]2[C@@H](CO)N(C(=O)CC)[C@@H]2CN(C(=O)C2CC2)C(C)C)cc1	> 10 µM (inactive)
COCC(=O)N1C[C@@H]2[C@H](c3ccccc31)[C@H](CO)N2Cc1cc(F)ccc1F	> 10 µM (inactive)
COc1cccc(NC(=O)N2[C@@H](CO)[C@H](c3ccccc3)[C@@H]2CNCC(C)C)c1	> 10 µM (inactive)
C[C@@H]1CN([C@@H](C)CO)C(=O)CCCn2nncc2CO[C@H]1CN(C)C(=O)Nc1ccnc(N2CCOCC2)c1	> 10 µM (inactive)
CCC(=O)N1C[C@@H]2[C@H](c3ccccc31)[C@@H](CO)N2C(=O)CC1CC1	> 10 µM (inactive)
COCC(=O)N1C[C@@H]2[C@H](c3ccccc31)[C@@H](CO)N2Cc1cc(F)ccc1F	> 10 µM (inactive)
C[C@@H]1CN([C@H](C)CO)C(=O)CCCn2nncc2CO[C@H]1CN(C)C(=O)Oc1cccc2ccccc12	> 10 µM (inactive)
C[C@@H]1CN([C@H](C)CO)C(=O)CCCn2nncc2CO[C@H]1CN(C)CC1CCCCC1	> 10 µM (inactive)
C[C@@H]1CN([C@H](C)CO)C(=O)CCCn2cc(nn2)CO[C@H]1CN(C)C(=O)NC1CCCCC1	> 10 µM (inactive)
CNC[C@@H]1OCc2cnnn2CCCC(=O)N([C@H](C)CO)C[C@@H]1C	> 10 µM (inactive)
